74 compounds from PubChem BioAssay AID1996 can be followed below.

In brackets after ≈: the same amount, converted by molar mass.

The conditions of this data set: buffer; pH 7.4; 200.0 µM.
The kinetic solubility is solubility judged after dilution from a stock solution rather than from solid. With `COc1ccccc1N1CCN(Cc2cnc(-c3ccccc3)[nH]2)CC1`, the kinetic solubility was found to be 15.1 µg/mL (≈ 43.3 µM).

Turning to `O=C(Nc1ccc2ccccc2n1)c1ccccc1`, the kinetic solubility amounted to 29.8 µg/mL (≈ 120 µM).

On to `CCCN1CNC(=S)N(c2ccccc2C)C1`, for which the solubility (kinetic) was more than 37.4 µg/mL.

In turn, `COC(=O)c1ccc2c(c1)NC(=O)c1ccccc1S2` yielded a kinetic solubility of 3.9 µg/mL (≈ 13.7 µM).

The compound `Cc1cc2nc(-c3ccc[nH]c3=O)n(Cc3ccccc3F)c2cc1C` yielded a kinetic solubility of 0.4 µg/mL (≈ 1.15 µM).

For `CN(Cc1ccccc1)S(=O)(=O)c1ccc2c(c1)n(C)c(=O)c(=O)n2C`, the solubility (kinetic) was determined as 1.4 µg/mL (≈ 3.75 µM).

`CCC1(c2ccc(F)cc2)NC(=O)NC1=O` (centres undefined) returned a solubility (kinetic) of 28.5 µg/mL (≈ 128 µM).

Compound `COCCCNC(=O)c1cc2cc3cc(OC)ccc3nc2o1` displayed a kinetic solubility of more than 47.2 µg/mL.

Consider `O=C(CSc1ncnc2ccccc12)c1ccco1`, for which the solubility (kinetic) is more than 40.5 µg/mL.

`O=C(COC(=O)CNC(=O)c1ccc(Cl)cc1)NC1CCCCCC1` gave a kinetic solubility of 18 µg/mL (≈ 49.1 µM).

`CC(=O)c1ccc(S(=O)(=O)N2CCC(C(=O)Nc3ncc(C)s3)CC2)cc1` registered a solubility (kinetic) of 3 µg/mL (≈ 7.36 µM).

Regarding `CN1CCN(NC(=O)c2cccc(C(F)(F)F)c2)CC1`, the solubility (kinetic) was more than 43.1 µg/mL.

`CCN(CC)CCOc1ccc(/C(=C(/Cl)c2ccccc2)c2ccccc2)cc1` gave a solubility (kinetic) of 1.5 µg/mL (≈ 3.69 µM).

As to `Cc1cccc(NC(=O)NC2CCCCCCC2)c1`, the solubility (kinetic) came to 5.2 µg/mL (≈ 20 µM).

As to `CCOC(=O)N1CCN(Cc2nc3cc([N+](=O)[O-])ccc3n2C)CC1`, the solubility (kinetic) turned out to be 50.7 µg/mL (≈ 146 µM).

`CC(=O)c1nc2ccccc2n1CCc1ccccc1` yielded a kinetic solubility of 27.5 µg/mL (≈ 104 µM).

In turn, `C=CCn1c(SCC(=O)N(C)C)nc2sc3c(c2c1=O)CCC3` had a kinetic solubility of 3.4 µg/mL (≈ 9.73 µM).

Consider `O=C(CSc1nnc2ccccn12)c1ccc(Cl)cc1`, for which the solubility (kinetic) is more than 45.6 µg/mL.

For the compound `Cc1ccccc1OCCC(=O)N1CCN(S(=O)(=O)c2ccccc2F)CC1`, the kinetic solubility was 38.5 µg/mL (≈ 94.7 µM).

In the case of `COc1ccccc1Nc1nc(C)cc(C)n1`, the kinetic solubility stood at 22.1 µg/mL (≈ 96.4 µM).

Compound `CN(C)Cc1c(O)ccc2ccccc12` gave a kinetic solubility of 29.8 µg/mL (≈ 148 µM).

`COc1cc([N+](=O)[O-])ccc1NC(=O)NCCCN1CCCC1=O` yielded a solubility (kinetic) of more than 50.5 µg/mL.

Consider `CN(CC(=O)Nc1ccccc1Cl)C(=O)CN1C(=O)C2CC=CCC2C1=O` (centres undefined), for which the kinetic solubility was determined as 50.3 µg/mL (≈ 129 µM).

As for `O=C(/C=C/c1ccccc1Cl)OCC(=O)c1ccc[nH]1`, the kinetic solubility was found to be 6.3 µg/mL (≈ 21.7 µM).

`CC(=O)c1ccc(NC(=O)[C@@]2(CC(=O)O)CC(/C=C/c3ccccc3)=NO2)cc1` gave a solubility (kinetic) of more than 58.9 µg/mL.

Consider `O=C(CN1CCCCC1)Nc1nc(-c2ccc(Cl)cc2)cs1`, for which the solubility (kinetic) is less than 0.2 µg/mL.

`O=[N+]([O-])c1ccc(CN2CCN(c3ccc(Cl)cc3)CC2)o1`: the solubility (kinetic) was determined as 4.7 µg/mL (≈ 14.6 µM).

In turn, `C=CCc1cc(C)ccc1OCCCn1ccnc1.O=C(O)C(=O)O` had a solubility (kinetic) of 29.1 µg/mL.

As to `CCCS(=O)(=O)Nc1cccc(-c2cn3c(n2)SCC3)c1`, the kinetic solubility is more than 48.5 µg/mL.

As for `O=C(Cc1ccccc1)NC(=S)Nc1ccc(OC(F)F)cc1`, the solubility (kinetic) came to 11.2 µg/mL (≈ 33.3 µM).

Consider `Cl.NC(=NCc1ccccc1)c1cccc([N+](=O)[O-])c1`, for which the kinetic solubility was more than 43.8 µg/mL.

Compound `Fc1cccc(Cl)c1CNCc1cccnc1` displayed a kinetic solubility of more than 37.6 µg/mL.

The compound `CC1Cc2ccccc2N1C(=O)CSc1ncccn1` (centres undefined) came in with a kinetic solubility of more than 42.8 µg/mL.

For the compound `O=C(C1CC1)N1CCc2sccc2C1c1ccc(Cl)cc1` (centres undefined), the solubility (kinetic) was less than 0.7 µg/mL.

`CN(C)S(=O)(=O)c1cccc(C(=O)Nc2ccc(C(=O)Nc3cccc(S(N)(=O)=O)c3)cc2)c1` came in with a kinetic solubility of 9 µg/mL (≈ 17.9 µM).

For `CCN1C(=O)c2ccc(C(=O)Nc3c(C)cc(C)cc3C)cc2C1=O`, the solubility (kinetic) was less than 0.4 µg/mL.

Take `O=C(COC(=O)/C=C/c1ccc([N+](=O)[O-])cc1)NCc1ccco1`: the solubility (kinetic) was 1.5 µg/mL (≈ 4.54 µM).

In turn, `Cc1cc(C)n2nc(SCc3ccccc3C(=O)O)nc2n1` displayed a solubility (kinetic) of more than 47.2 µg/mL.

Turning to `O=C(O/N=C1\CCCc2ccccc21)C1CC1`, the solubility (kinetic) amounted to 28.3 µg/mL (≈ 123 µM).

As to `O=c1[nH]c(O)c(C=Nc2cc(F)cc(F)c2)c(=O)[nH]1`, the kinetic solubility worked out at 2.8 µg/mL (≈ 10.5 µM).

Take `Cc1ccc(NC(=S)Nc2ccccn2)c(C)c1`: the solubility (kinetic) was found to be 3.1 µg/mL (≈ 12 µM).

Compound `COc1cc(N=Cc2c(CO)cnc(C)c2O)cc(OC)c1OC` displayed a solubility (kinetic) of 49.2 µg/mL (≈ 148 µM).

The compound `Cc1cccc(N2CCc3c2nc2ccc(Br)cc2c3N)c1.Cl` showed a kinetic solubility of 0.6 µg/mL.

Consider `CC(=O)N(CCS(=O)(=O)c1ccc(Cl)cc1)Cc1cccs1`, for which the kinetic solubility came out at 39.9 µg/mL (≈ 111 µM).

In turn, `CCC/C(O)=C1\C(=O)CCCC1=NCCc1c(C)[nH]c2ccccc12` came in with a kinetic solubility of 34.4 µg/mL (≈ 102 µM).

Regarding `O=C(c1cc(C(=O)N2CCCC2)cc([N+](=O)[O-])c1)N1CCCC1`, the solubility (kinetic) was more than 47.6 µg/mL.

In turn, `CC12CC3CC(C)(C1)CC(NCc1ccncc1)(C3)C2.Cl` had a solubility (kinetic) of more than 46 µg/mL.

As for `Cc1cc(C(C)(C)C)oc1C(=O)OCC(=O)NC1CCCCC1`, the kinetic solubility worked out at 1.1 µg/mL (≈ 3.42 µM).

In turn, `COC(=O)c1ccc(CN2C(=O)C3CCCCC3C2=O)o1` (centres undefined) gave a kinetic solubility of more than 43.7 µg/mL.

In turn, `CCCC1Cc2[nH]c(=O)c(C#N)cc2CO1` (centres undefined) registered a solubility (kinetic) of more than 32.7 µg/mL.

Compound `COc1ccccc1C(=O)N1CCC(N2CCN(c3ccccc3)CC2)CC1` came in with a kinetic solubility of 41.5 µg/mL (≈ 109 µM).

With `O=c1[nH]c(Cc2ccccc2)nc2ccccc12`, the kinetic solubility was 2.5 µg/mL (≈ 10.6 µM).

`COc1ccccc1OCCCC(=O)NCc1ccco1` came in with a kinetic solubility of more than 43.4 µg/mL.

As for `COc1ccc2cc(-c3ccon3)ccc2c1`, the kinetic solubility is less than 0.5 µg/mL.

`CCN(CCO)C(=S)Nc1cc(S(=O)(=O)N(C)C)ccc1C` registered a solubility (kinetic) of more than 51.8 µg/mL.

The compound `CCN1CCCC1CNC(=O)C(=O)Nc1ccccc1` (centres undefined) showed a kinetic solubility of more than 41.3 µg/mL.

Compound `CCC1CCCCN1C(=O)c1cc(S(=O)(=O)N2CCOCC2)ccc1C` (centres undefined) gave a kinetic solubility of more than 57.1 µg/mL.

As for `Cc1ccnc(NC(=O)c2cc3ccccc3o2)c1`, the kinetic solubility stood at 12.9 µg/mL (≈ 51.1 µM).

In turn, `COC(=O)/C(C#N)=C/c1c[nH]c2ccccc12` came in with a kinetic solubility of 7.1 µg/mL (≈ 31.4 µM).

Turning to `CC(=O)c1ccc(S(=O)(=O)Nc2ccc(Cl)c(S(=O)(=O)N3CCCC3)c2)cc1`, the kinetic solubility was more than 66.4 µg/mL.

In turn, `CC(CN1CCOCC1)OC(=O)c1ccccc1.Cl` (centres undefined) came in with a solubility (kinetic) of more than 42.9 µg/mL.

For `CC(=O)Cn1c(CN2CCCCC2)nc2ccccc2c1=O`, the kinetic solubility was more than 44.9 µg/mL.

In the case of `CN(C)c1nc(-c2ccccc2)c2cc(Cl)ccc2n1`, the kinetic solubility came out at 1 µg/mL (≈ 3.52 µM).

As for `CC(C)C(=O)Nc1ccc([N+](=O)[O-])c(C(F)(F)F)c1`, the kinetic solubility is more than 41.4 µg/mL.

The compound `Cc1ccc(C2=NN(CC(=O)NCc3cccs3)C(=O)CC2)cc1` came in with a solubility (kinetic) of more than 51.2 µg/mL.

As to `CCn1cc(C(=O)NCc2ccccc2)c2ccccc21`, the kinetic solubility was 8 µg/mL (≈ 28.7 µM).

`CC1(C)OC(=O)C(=Cc2ccc[nH]2)C(=O)O1` displayed a solubility (kinetic) of 25.4 µg/mL (≈ 115 µM).

Compound `Cc1cc(C)nc(SCc2ccc([N+](=O)[O-])cc2)n1` came in with a kinetic solubility of 6.1 µg/mL (≈ 22.2 µM).

In turn, `COc1ccc2oc(=O)c(C(=O)NCc3ccccc3)cc2c1` yielded a kinetic solubility of 0.7 µg/mL (≈ 2.26 µM).

In turn, `COc1cc(C(F)(F)F)c(C(=O)NCc2cccc(Cl)c2)cn1` displayed a solubility (kinetic) of 5.3 µg/mL (≈ 15.4 µM).

The compound `Cc1cnc(C(=O)OCC(=O)NCc2ccc(Cl)cc2)cn1` returned a solubility (kinetic) of more than 48 µg/mL.

`O=C(O)c1ccccc1S(=O)(=O)CC(=O)N1CCCCC1`: the kinetic solubility is more than 46.7 µg/mL.

Compound `Cc1cccc(NC(=O)/C(C#N)=C/c2ccc[nH]2)c1C` showed a kinetic solubility of 2.1 µg/mL (≈ 7.92 µM).

Compound `O=S(=O)(c1ccc(Br)cc1)N1CCCc2ccccc21` returned a kinetic solubility of 1.6 µg/mL (≈ 4.54 µM).
